{"source": "patent US9757403B2", "about": "“Glycan therapeutics and related methods thereof” (KALEIDO BIOSCIENCES, INC., priority 2015, dated 2017)", "system": "Clostridium difficile (strain VPI 10463 (ATCC-43255))", "experiment": "Mouse model of Clostridium difficile infection, disease-associated phenotypes and spore carriage", "assay_type": "in vivo, Mice (female C57BL/6)", "experimental": "This experiment was conducted to analyze the effects of glycan therapeutics in a mouse model of Clostridium difficile infection (Chen et al, 2008, A Mouse Model of Clostridium difficile-Associated Disease. Gastroenterology 135(6), 1984-1992). In this model, normal mice were exposed to an antibiotic regimen that renders them susceptible to C. difficile infection and disease symptoms, similar with respect to their development and manifestation of human clinical disease. In humans, the disease is most often the result of exposure to broad spectrum antibiotics which is thought to result in intestinal dysbiosis and subsequent increased colonic colonization with C. difficile. […]\nDisease-associated phenotypes were recorded for a duration of ten days starting on the day of Clostridium difficile challenge (on day 0) through day 10. The phenotypes, including lethargy, hunched posture and ruffled coat, wet tail/abdomen and hypothermia were scored from 0 to 4: Normal=0; Lethargic=1; Lethargic+Hunched=2; Lethargic+Hunched+Wet tail/abdomen (diarrhea)=3; and Lethargic+Hunched+Wet tail/abdomen+Hypothermic=4. Death (day 0 to day 10 or 11) and weight (day 1 to day 7 and day 10) of the animals was also monitored and recorded.\nIn addition, carriage of Clostridium difficile spores, which is indicative of Clostridium difficile gut colonization in both mice and humans, was assessed daily from day 0 to day 6. […]"}
{"compound": "CN[C@H](CC(C)C)C(=O)N[C@H]1C(=O)N[C@@H](CC(N)=O)C(=O)N[C@H]2C(=O)N[C@H]3C(=O)N[C@H](C(=O)N[C@H](C(=O)O)c4cc(O)cc(O)c4-c4cc3ccc4O)[C@H](O)c3ccc(c(Cl)c3)Oc3cc2cc(c3O[C@@H]2O[C@H](CO)[C@@H](O)[C@H](O)[C@H]2O[C@H]2C[C@](C)(N)[C@H](O)[C@H](C)O2)Oc2ccc(cc2Cl)[C@H]1O", "note": "[Vancomycin, vancomycin]", "values": [{"measurement": "clinical signs on day 10", "setting": "PO gavage QD days 0 to 4", "result": "exhibited clinical signs"}, {"measurement": "clinical score of survivors", "setting": "score 0 to 4, after end of treatment, days 7 to 10", "result": "above 0"}]}
